# Source: PubChem BioAssay AID2060613 (Molecular Pharmacology Branch, DTP, NCI, 2025)
# Tested on: 233499-124-R-J3-PDC complex spheroid viability
# Experiment: Anticancer human tumor 233499-124-R-J3-PDC patient-derived colon adenocarcinoma cell line growth inhibition [CLK]
# Settings: for IC50: curve of first compound; for viability, T/C: stronger effect = lower value
# Procedure, shortened: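 Multi-cell-type spheroids combined patient-derived tumor cells with HUVEC endothelial cells and human mesenchymal stem cells. Paired agents were dosed in half-log steps down from about clinical Cmax, or from 10 microM where Cmax was unknown.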
# 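Further: spheroids exposed to the drug combinations for seven days.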
# 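Wherever viability, T/C is given: percent viability relative to DMSO vehicle control wells taken as 100%.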
structure (smiles),measurement,setting,value
Nc1ccccc1NC(=O)c1ccc(CNC(=O)OCc2cccnc2)cc1 + CN1CCN(c2cc(C(=O)Nc3cc4cc(-c5cnn(C)c5)ccc4cn3)ccn2)CC1,IC50,second compound 0.0316 µM,1690 nM
same,IC50,second compound 0.1 µM,1110 nM
same,IC50,second compound 0.316 µM,< 31.6 nM
same,IC50,second compound 1 µM,< 31.6 nM
same,IC50,second compound 3.16 µM,< 31.6 nM
same,IC50,second compound 10 µM,< 31.6 nM
same,"viability, T/C","second compound 0.0316 µM, first compound 0.0316 µM",96.3%
same,"viability, T/C","second compound 0.0316 µM, first compound 0.1 µM",89.9%
same,"viability, T/C","second compound 0.0316 µM, first compound 0.316 µM",93.6%
same,"viability, T/C","second compound 0.0316 µM, first compound 1 µM",80.5%
same,"viability, T/C","second compound 0.0316 µM, first compound 3.16 µM",13.5%
same,"viability, T/C","second compound 0.0316 µM, first compound 10 µM",0.6%
same,"viability, T/C","second compound 0.1 µM, first compound 0.0316 µM",89.3%
same,"viability, T/C","second compound 0.1 µM, first compound 0.1 µM",100%
same,"viability, T/C","second compound 0.1 µM, first compound 0.316 µM",80.2%
same,"viability, T/C","second compound 0.1 µM, first compound 1 µM",56.6%
same,"viability, T/C","second compound 0.1 µM, first compound 3.16 µM",2.92%
same,"viability, T/C","second compound 0.1 µM, first compound 10 µM",0.44%
same,"viability, T/C","second compound 0.316 µM, first compound 0.0316 µM",17.7%
same,"viability, T/C","second compound 0.316 µM, first compound 0.1 µM",47.3%
same,"viability, T/C","second compound 0.316 µM, first compound 0.316 µM",2.45%
same,"viability, T/C","second compound 0.316 µM, first compound 1 µM",0.63%
same,"viability, T/C","second compound 0.316 µM, first compound 3.16 µM",0.47%
same,"viability, T/C","second compound 0.316 µM, first compound 10 µM",0.63%
same,"viability, T/C","second compound 1 µM, first compound 0.0316 µM",0.46%
same,"viability, T/C","second compound 1 µM, first compound 0.1 µM",0.44%
same,"viability, T/C","second compound 1 µM, first compound 0.316 µM",0.62%
same,"viability, T/C","second compound 1 µM, first compound 1 µM",0.56%
same,"viability, T/C","second compound 1 µM, first compound 3.16 µM",0.57%
same,"viability, T/C","second compound 1 µM, first compound 10 µM",1.23%
same,"viability, T/C","second compound 3.16 µM, first compound 0.0316 µM",0.65%
same,"viability, T/C","second compound 3.16 µM, first compound 0.1 µM",0.68%
same,"viability, T/C","second compound 3.16 µM, first compound 0.316 µM",0.7%
same,"viability, T/C","second compound 3.16 µM, first compound 1 µM",0.66%
same,"viability, T/C","second compound 3.16 µM, first compound 3.16 µM",0.69%
same,"viability, T/C","second compound 3.16 µM, first compound 10 µM",0.59%
same,"viability, T/C","second compound 10 µM, first compound 0.0316 µM",0.18%
same,"viability, T/C","second compound 10 µM, first compound 0.1 µM",0.24%
same,"viability, T/C","second compound 10 µM, first compound 0.316 µM",0.28%
same,"viability, T/C","second compound 10 µM, first compound 1 µM",0.28%
same,"viability, T/C","second compound 10 µM, first compound 3.16 µM",0.26%
same,"viability, T/C","second compound 10 µM, first compound 10 µM",0.35%
